Reference: US4009273A, “Substituted 10,11-dihydro-5,10-imino-[5H] dibenzo (a,d)-cycloheptene” (priority 1972, dated 1977)

Columns and labels:
[1] = test system: pentamethylenetetrazol convulsions; experiment: Anticonvulsant effect (pentamethylenetetrazol perfusion); assay type: in vivo, mice (female); conditions: 1 h before perfusion
Protocol: The anticonvulsant activity of the compounds was determined on groups of 10 female mice with intraperitoneal administration of the test compounds in acid solution at different doses and the control group received only the solvent. One hour after the injection, the mice were perfused with a solution of pentamethylenetetrazol in physiological serum at a concentration of 3 mg/ml. The perfusion was intraveinous at a rate of 1 ml per minute and in the course of the perfusion, the progress of introxication was characterized by the following 3 criteria:
a. Threshold of convulsant effect (myoclonia of the ears)
b. Crisis of clonic convulsions
c. Tonic convulsion with apnea and generally followed by death.

Acute toxicity = conditions: mouse, in vivo, ip, Swiss mice, observed for a week
Protocol: The acute toxicity was determined on groups of Swiss mice weighing 18 to 22 g and the test products were administered intraperitoneally in increasing doses and the animals were kept under observation for a week.

amytal sleeping time = experiment: Potentialization of sleeping time (amytal); assay type: in vivo, mice (female); conditions: 1 h before 80 mg/kg amytal i.v.
Protocol: The potentialization of sleeping time was determined with a test using amytal [5-ethyl-5-isoamyl-barbituric acid] in which groups of female mice weighing between 18 and 22 g were kept at 25° C for the duration of the test. The test products were administered intraperitoneally at different doses one hour before intraveinous injection of 80 mg/kg of amytal and the sleeping time was noted which is the time while the reflux of straightening in the mice was negative.

amphetamine deaths = experiment: Amphetamine toxicity in mice; assay type: in vivo, mice (female); conditions: mortality at 4 h
Protocol: The test was effected on group of 10 female mice weighing between 18 and 22 g kept at 27° C for the duration of the test. The test products were intraperitoneally administered in different doses in a volume of 0.01 ml /g of mouse. One hour later, the mice received an injection of 15 mg/kg of a solution of 1.5 mg of amphetamine per ml of physiological serum. The mortality 4 hours after the amphetamine injection was determined and the results were expressed as a ratio of number of dead animals to number of starting animals.

[2] = 5 mg/Kg i.p., 1 h before 15 mg/kg amphetamine
[3] = 10 mg/Kg i.p., 1 h before 15 mg/kg amphetamine
[4] = 20 mg/Kg i.p., 1 h before 15 mg/kg amphetamine
[5] = 2 mg/Kg i.p., 1 h before 15 mg/kg amphetamine

## CN1C2Cc3ccccc3C1c1ccc(Cl)cc12 (stereo not drawn) [Example 26, 8-chloro-12-methyl-10,11-dihydro-5,10-imino-[5H]-dibenzo (a,d) cycloheptene dl]
[1]; 5 mg/Kg i.p.
  Dose of pentamethylenetetrazol, Clonic Crisis: 50.8 mg/kg
  Dose of pentamethylenetetrazol, Myoclonia: 43.9 mg/kg
  Dose of pentamethylenetetrazol, Tonic Crisis: 128 mg/kg
[1]; 10 mg/Kg i.p.
  Dose of pentamethylenetetrazol, Clonic Crisis: 52.0 mg/kg
  Dose of pentamethylenetetrazol, Myoclonia: 44.1 mg/kg
  Dose of pentamethylenetetrazol, Tonic Crisis: 174.7 mg/kg
[1]; 20 mg/Kg i.p.
  Dose of pentamethylenetetrazol, Clonic Crisis: 56.4 mg/kg
  Dose of pentamethylenetetrazol, Myoclonia: 49.7 mg/kg
  Dose of pentamethylenetetrazol, Tonic Crisis: 230.2 mg/kg
[1]; 50 mg/Kg i.p.
  Dose of pentamethylenetetrazol, Clonic Crisis: 66.7 mg/kg
  Dose of pentamethylenetetrazol, Myoclonia: 52.6 mg/kg
  Dose of pentamethylenetetrazol, Tonic Crisis: 274.2 mg/kg
Acute toxicity
  LD50 at 168 h: ~350 mg/kg
Amytal sleeping time; 5 mg/Kg i.p.
  average sleeping time: 22.6 min
Amytal sleeping time; 10 mg/Kg i.p.
  average sleeping time: 27.4 min
Amytal sleeping time; 20 mg/Kg i.p.
  average sleeping time: 36.0 min
Amytal sleeping time; 50 mg/Kg i.p.
  average sleeping time: 94.5 min
Amphetamine deaths; [2]
  ratio of number of dead animals to number of starting animals: 10/10
Amphetamine deaths; [3]
  ratio of number of dead animals to number of starting animals: 10/10
Amphetamine deaths; [4]
  ratio of number of dead animals to number of starting animals: 10/10
Amphetamine deaths; head prints only "mg/Kg" (dose figure missing), i.p.
  ratio of number of dead animals to number of starting animals: 1/9

## c1ccc2c(c1)CC1NC2c2ccccc21 (stereo not drawn) [Example 1, 10,11-dihydro-5,10-imino-[5H]-dibenzo (a,d) cycloheptene dl]
Acute toxicity
  LD50 at 168 h: 150 mg/kg
Amphetamine deaths; 1 mg/Kg i.p., 1 h before 15 mg/kg amphetamine
  ratio of number of dead animals to number of starting animals: 10/10
Amphetamine deaths; [5]
  ratio of number of dead animals to number of starting animals: 5/10
Amphetamine deaths; 200γ/Kg i.p., 1 h before 15 mg/kg amphetamine
  ratio of number of dead animals to number of starting animals: 9/10
Amphetamine deaths; 500γ/Kg i.p., 1 h before 15 mg/kg amphetamine
  ratio of number of dead animals to number of starting animals: 9/10

## CCCN1C2Cc3ccccc3C1c1ccccc12 (stereo not drawn) [Example 24, 12-n-propyl-10,11-dihydro-5,10-imino[5H]-dibenzo (a,d) cycloheptene dl]
[1]; 1 mg/Kg i.p.
  Dose of pentamethylenetetrazol, Clonic Crisis: 61.8 mg/kg
  Dose of pentamethylenetetrazol, Myoclonia: 54.2 mg/kg
  Dose of pentamethylenetetrazol, Tonic Crisis: 170.3 mg/kg
[1]; 2 mg/Kg i.p.
  Dose of pentamethylenetetrazol, Clonic Crisis: 57.3 mg/kg
  Dose of pentamethylenetetrazol, Myoclonia: 50.4 mg/kg
  Dose of pentamethylenetetrazol, Tonic Crisis: 225.8 mg/kg
[1]; 5 mg/Kg i.p.
  Dose of pentamethylenetetrazol, Clonic Crisis: 60.0 mg/kg
  Dose of pentamethylenetetrazol, Myoclonia: 51.4 mg/kg
  Dose of pentamethylenetetrazol, Tonic Crisis: 265.2 mg/kg
[1]; 10 mg/Kg i.p.
  Dose of pentamethylenetetrazol, Clonic Crisis: 78.4 mg/kg
  Dose of pentamethylenetetrazol, Myoclonia: 57.7 mg/kg
  Dose of pentamethylenetetrazol, Tonic Crisis: 275.9 mg/kg
Acute toxicity
  LD50 at 168 h: ~250 mg/kg
Amytal sleeping time; 2 mg/Kg i.p.
  average sleeping time: 38.6 min
Amytal sleeping time; 5 mg/Kg i.p.
  average sleeping time: 42.2 min
Amytal sleeping time; 10 mg/Kg i.p.
  average sleeping time: 65.1 min
Amytal sleeping time; 20 mg/Kg i.p.
  average sleeping time: 103.7 min
Amphetamine deaths; [2]
  ratio of number of dead animals to number of starting animals: 10/10
Amphetamine deaths; [3]
  ratio of number of dead animals to number of starting animals: 9/10
Amphetamine deaths; [4]
  ratio of number of dead animals to number of starting animals: 3/10

## ClCCN1C2Cc3ccccc3C1c1ccccc12 (stereo not drawn) [Example 27, 12-(2'-chloroethyl)-10,11-dihydro-5,10-imino-[5H]-dibenzo (a,d) cycloheptene dl]
[1]; 2 mg/Kg i.p.
  Dose of pentamethylenetetrazol, Clonic Crisis: 52.9 mg/kg
  Dose of pentamethylenetetrazol, Myoclonia: 45.9 mg/kg
  Dose of pentamethylenetetrazol, Tonic Crisis: 163.2 mg/kg
[1]; 5 mg/Kg i.p.
  Dose of pentamethylenetetrazol, Clonic Crisis: 56.7 mg/kg
  Dose of pentamethylenetetrazol, Myoclonia: 51.5 mg/kg
  Dose of pentamethylenetetrazol, Tonic Crisis: 229.8 mg/kg
[1]; 10 mg/Kg i.p.
  Dose of pentamethylenetetrazol, Clonic Crisis: 62.1 mg/kg
  Dose of pentamethylenetetrazol, Myoclonia: 57 mg/kg
  Dose of pentamethylenetetrazol, Tonic Crisis: 258.2 mg/kg
Acute toxicity
  LD50 at 168 h: ~150 mg/kg
Amytal sleeping time; 2 mg/Kg i.p.
  average sleeping time: 21.7 min
Amytal sleeping time; 5 mg/Kg i.p.
  average sleeping time: 42.2 min
Amytal sleeping time; 10 mg/Kg i.p.
  average sleeping time: 44.8 min
Amytal sleeping time; 20 mg/Kg i.p.
  average sleeping time: 83.0 min
Amphetamine deaths; [2]
  ratio of number of dead animals to number of starting animals: 10/10
Amphetamine deaths; [3]
  ratio of number of dead animals to number of starting animals: 8/10
Amphetamine deaths; [4]
  ratio of number of dead animals to number of starting animals: 2/10

## C#CCN1C2Cc3ccccc3C1c1ccccc12 (stereo not drawn) [Example 20, 12-propargyl-10,11-dihydro-5,10-imino-[5H]-dibenzo (a,d) cycloheptene dl]
[1]; 0.5 mg/Kg i.p.
  Dose of pentamethylenetetrazol, Clonic Crisis: 49.1 mg/kg
  Dose of pentamethylenetetrazol, Myoclonia: 44.2 mg/kg
  Dose of pentamethylenetetrazol, Tonic Crisis: 140.7 mg/kg
[1]; 1 mg/Kg i.p.
  Dose of pentamethylenetetrazol, Clonic Crisis: 46.7 mg/kg
  Dose of pentamethylenetetrazol, Myoclonia: 41.9 mg/kg
  Dose of pentamethylenetetrazol, Tonic Crisis: 146.4 mg/kg
[1]; 2 mg/Kg i.p.
  Dose of pentamethylenetetrazol, Clonic Crisis: 46.2 mg/kg
  Dose of pentamethylenetetrazol, Myoclonia: 41.2 mg/kg
  Dose of pentamethylenetetrazol, Tonic Crisis: 168.5 mg/kg
[1]; 5 mg/Kg i.p.
  Dose of pentamethylenetetrazol, Clonic Crisis: 49.0 mg/kg
  Dose of pentamethylenetetrazol, Myoclonia: 43.9 mg/kg
  Dose of pentamethylenetetrazol, Tonic Crisis: 221.7 mg/kg
Amytal sleeping time; 0.5 mg/Kg i.p.
  average sleeping time: 41.8 min
Amytal sleeping time; 1 mg/Kg i.p.
  average sleeping time: 46.5 min
Amytal sleeping time; 2 mg/Kg i.p.
  average sleeping time: 49.4 min
Amytal sleeping time; 5 mg/Kg i.p.
  average sleeping time: 64.9 min
Amphetamine deaths; [5]
  ratio of number of dead animals to number of starting animals: 9/10
Amphetamine deaths; [2]
  ratio of number of dead animals to number of starting animals: 9/10
Amphetamine deaths; [3]
  ratio of number of dead animals to number of starting animals: 7/10
Amphetamine deaths; [4]
  ratio of number of dead animals to number of starting animals: 1/10

## CC(=O)N1C2Cc3ccccc3C1c1ccccc12 (stereo not drawn) [Example 10, 12-acetyl-10,11-dihydro-5,10-imino-5H]-dibenzo (a,d) cycloheptene dl]
Acute toxicity
  LD50 at 168 h: > 500 mg/kg

## CP(C)(=O)CN1C2Cc3ccccc3C1c1ccccc12 (stereo not drawn) [Example 9, 12-dimethylphosphorosomethyl-10.11-dihydro-5,10-imino-[5H]-dibenzo (a,d) cycloheptene dl]
Acute toxicity
  LD50 at 168 h: 350 mg/kg

## CCOC(=O)N1C2Cc3ccccc3C1c1ccccc12 (stereo not drawn) [Example 17, 12-carbethoxy-10,11-dihydro-5,10imino-[5H]-dibenzo (a,d) cycloheptene dl]
Acute toxicity
  LD50 at 168 h: 1000 mg/kg

## C[N+]1(C)C2Cc3ccccc3C1c1ccccc12 (stereo not drawn) [Example 16, 12-methyl-10,11-dihydro-5,10-imino-[5H]-dibenzo (a,d) cycloheptene dl iodomethylate]
Acute toxicity
  LD50 at 168 h: > 200 mg/kg

## O=C(Oc1ccccc1[N+](=O)[O-])N1C2Cc3ccccc3C1c1ccccc12 (stereo not drawn) [Example 8, 12-(o-nitrophenoxycarbonyl)-10,11-dihydro-5,10-imino-[5H]-dibenzo (a,d) cycloheptene dl]
Acute toxicity
  LD50 at 168 h: > 1000 mg/kg

## CNCC(=O)N1C2Cc3ccccc3C1c1ccccc12 (stereo not drawn) [Example 25, 12-(methylaminoacetyl)-10,11-dihydro-5,10-imino-[5H]-dibenzo (a,d) cycloheptene dl]
Acute toxicity
  LD50 at 168 h: ~300 mg/kg

## c1ccc(CN2C3Cc4ccccc4C2c2ccccc23)cc1 (stereo not drawn) [Example 23, 12-benzyl-10,11-dihydro-5,10-imino-[5H]-dibenzo (a,d) cycloheptene dl]
Acute toxicity
  LD50 at 168 h: > 400 mg/kg

## NC(=O)N1C2Cc3ccccc3C1c1ccccc12 (stereo not drawn) [Example 13, 12-carbamoyl-10,11-dihydro-5,10-imino-[5H]-dibenzo (a,d) cycloheptene dl]
Acute toxicity
  LD50 at 168 h: 1000 mg/kg

## C=CCN1C2Cc3ccccc3C1c1ccccc12 (stereo not drawn) [Example 19, 12-allyl-10,11-dihydro-5,10-imino-[5H]-dibenzo (a,d) cyclo-heptene dl]
[1]; 2 mg/Kg i.p.
  Dose of pentamethylenetetrazol, Clonic Crisis: 50.0 mg/kg
  Dose of pentamethylenetetrazol, Myoclonia: 44.8 mg/kg
  Dose of pentamethylenetetrazol, Tonic Crisis: 150.8 mg/kg
[1]; 5 mg/Kg i.p.
  Dose of pentamethylenetetrazol, Clonic Crisis: 49.8 mg/kg
  Dose of pentamethylenetetrazol, Myoclonia: 44.5 mg/kg
  Dose of pentamethylenetetrazol, Tonic Crisis: 136.0 mg/kg
[1]; 10 mg/Kg i.p.
  Dose of pentamethylenetetrazol, Clonic Crisis: 52.4 mg/kg
  Dose of pentamethylenetetrazol, Myoclonia: 47.4 mg/kg
  Dose of pentamethylenetetrazol, Tonic Crisis: 241.9 mg/kg
[1]; 20 mg/Kg i.p.
  Dose of pentamethylenetetrazol, Clonic Crisis: 54.7 mg/kg
  Dose of pentamethylenetetrazol, Myoclonia: 49.2 mg/kg
  Dose of pentamethylenetetrazol, Tonic Crisis: 271.8 mg/kg
Acute toxicity
  LD50 at 168 h: 350 mg/kg
Amytal sleeping time; 2 mg/Kg i.p.
  average sleeping time: 37.1 min
Amytal sleeping time; 5 mg/Kg i.p.
  average sleeping time: 65.1 min
Amytal sleeping time; 10 mg/Kg i.p.
  average sleeping time: 71.7 min
Amytal sleeping time; 20 mg/Kg i.p.
  average sleeping time: > 120 min
